Measurements taken from patent US10023566B2, “Dasatinib salts” (EGIS GYOGYSZERGYAR ZRT, priority 2014, dated 2018).
Structures can show the parent of a compound that is named as a salt. One block for each compound: values may come before it.

Key:
Format in all cases: physicochemical
[1] = Water adsorption, DVS (dynamic vapor sorption) analysis; conditions: after drying
Source text: As it is disclosed in WO2007/035874 paragraph [0096] dasatinib mono HCl includes a cavity or channel, which may be partially or fully occupied by solvent or a mixture of solvent. […] Further salts disclosed in the prior art also contain solvent adsorbed on the surface or in the form of solvate. These forms are nor suitable for pharmaceutical application. […] Therefore we carried out our comparative experiments between dasatinib base monohydrate and the new salts of the present invention.

[2] = Determination of the solubility of dasatinib salts (shake flask 37° C., HPLC); conditions: 6 hour shaking, 18 hour sedimentation
Procedure: Considering the above mentioned facts our solubility measurements were carried out on three different pH values (pH 1, pH 4.5 and pH 6.8).
Determination of the Solubility of Dasatinib Salts (Measurement Conditions)
Preparation of Sample Mixture:
• 100 mg of dasatinib salt are weighed in a 20 ml Erlenmeyer flask whereupon 10 ml of medium are added and it is shaked for 6 hours at a temperature of 37° C. on 100 rpm. After sedimentation for 18 hours at a temperature of 37° C. the settled solution is filtered through a sieve with 0.45 μm pores and the solution is diluted up to 20 ml with medium.

[3] = Storage stability test: quantity of impurities by HPLC and change thereof; conditions: for stability in the storage tests (in words): storage tests carried out under various conditions, thermal stress and forced stability tests
Source text: In course of the thermal stress test and the forced stability test the decompositions in a pharmaceutical composition occurring during storage are constructed essentially in an accelerated manner. […] The advantageous properties of the new dasatinib salts of the present invention are significant from the point of view of the formulation of pharmaceutical compositions, the storage and the minimization of the harmful effects exerted in the human body.
The stability of the new dasatinib salts of the present invention were subjected to detailed tests.
Our results regarding the quantity of the impurities and change thereof are shown in the tables below (expressed in percentage).
Measuring conditions are the same as the determination of purity profile below.
Determination of the Impurities of Dasatinib Salts by HPLC (Measurement Conditions)

[4] = 3 week, 40° C./70% RH, listed as Anhydrous dasatinib p-toluenesulfonic acid (1:1) salt Form I

water adsorption property (in words) [1]: changeable, especially after drying
Compound: Cc1nc(Nc2ncc(C(=O)Nc3c(C)cccc3Cl)s2)cc(N2CCN(CCO)CC2)n1 [dasatinib mono HCl salt, N-(2-Chloro-6-methylphenyl)-2-[6-[4-(2-hydroxyethyl)piperazin-1-yl]-2-methylpyrimidin-4-ylamino]-1,3-thiazole-5-carboxamide]

solubility ([2]; 0.1M HCl (pH 1)): 5365 µg/mL
solubility ([2]; pH = 4.5 phosphate buffer): 4510 µg/mL
Impurity, unnamed, RT 15.5 ([3]; 3 week, 25° C./90% RH): 0.03%
Impurity Summary (%) ([3]; 3 week, 25° C./90% RH, listed as Anhydrous dasatinib p-toluenesulfonic acid (1:1) salt Form I): 0.03%
Impurity Ethylene-diamine intermedier (RT 9.0-9.3) [3, 4]: 0.03%
Impurity Summary (%) [3, 4]: 0.03%
Impurity, unnamed, RT 15.5 ([3]; starting sample): 0.03%
Impurity Summary (%) ([3]; starting sample, listed as Anhydrous dasatinib p-toluenesulfonic acid (1:1) salt Form I): 0.03%
stability in the storage tests (in words) ([3]; listed as anhydrous dasatinib p-toluenesulfonic acid (1:1) salt Form I): particularly stable
Compound: Cc1nc(Nc2ncc(C(=O)Nc3c(C)cccc3Cl)s2)cc(N2CCN(CCO)CC2)n1 [dasatinib tosilate (1:1) Form I anhydrate] [N-(2-Chloro-6-methylphenyl)-2-[6-[4-(2-hydroxyethyl)piperazin-1-yl]-2-methylpyrimidin-4-ylamino]-1,3-thiazole-5-carboxamide]

More lines, now with the values behind:

Compound: Cc1nc(Nc2ncc(C(=O)Nc3c(C)cccc3Cl)s2)cc(N2CCN(CCO)CC2)n1 [dasatinib hydrogen bromide (1:2) salt, N-(2-Chloro-6-methylphenyl)-2-[6-[4-(2-hydroxyethyl)piperazin-1-yl]-2-methylpyrimidin-4-ylamino]-1,3-thiazole-5-carboxamide]
solubility ([2]; 0.1M HCl (pH 1)): 7994 µg/mL
solubility ([2]; pH = 4.5 phosphate buffer): 1056 µg/mL

Compound: Cc1nc(Nc2ncc(C(=O)Nc3c(C)cccc3Cl)s2)cc(N2CCN(CCO)CC2)n1 [dasatinib tosilate (1:1) dihydrate, N-(2-Chloro-6-methylphenyl)-2-[6-[4-(2-hydroxyethyl)piperazin-1-yl]-2-methylpyrimidin-4-ylamino]-1,3-thiazole-5-carboxamide]
solubility ([2]; 0.1M HCl (pH 1)): 4898 µg/mL
solubility ([2]; pH = 4.5 phosphate buffer): 1641 µg/mL
solubility ([2]; pH = 6.8 phosphate buffer): 10 µg/mL

Compound: Cc1nc(Nc2ncc(C(=O)Nc3c(C)cccc3Cl)s2)cc(N2CCN(CCO)CC2)n1 [dasatinib cyclamic acid (1:1) salt Form II] [N-(2-Chloro-6-methylphenyl)-2-[6-[4-(2-hydroxyethyl)piperazin-1-yl]-2-methylpyrimidin-4-ylamino]-1,3-thiazole-5-carboxamide]
solubility ([2]; 0.1M HCl (pH 1)): 8862 µg/mL
solubility ([2]; pH = 4.5 phosphate buffer): 4544 µg/mL
Impurity Dasatinib N-oxyde (RT 12.2-12.4) ([3]; 3 week, 25° C./90% RH): 0.04%
Impurity Deshydroxyethyl dasatinib (RT 11.0) ([3]; 3 week, 25° C./90% RH): 0.04%
Impurity Ethylene-diamine intermedier (RT 9.0-9.3) ([3]; 3 week, 25° C./90% RH): 0.03%
Impurity Summary (%) ([3]; 3 week, 25° C./90% RH): 0.11%
Impurity Deshydroxyethyl dasatinib (RT 11.0) ([3]; 3 week, 40° C./70% RH): 0.04%
Impurity Ethylene-diamine intermedier (RT 9.0-9.3) ([3]; 3 week, 40° C./70% RH): 0.03%
Impurity Summary (%) ([3]; 3 week, 40° C./70% RH): 0.07%
Impurity Deshydroxyethyl dasatinib (RT 11.0) ([3]; 6 week, 25° C./90% RH): 0.04%
Impurity Ethylene-diamine intermedier (RT 9.0-9.3) ([3]; 6 week, 25° C./90% RH): 0.03%
Impurity Summary (%) ([3]; 6 week, 25° C./90% RH): 0.07%
Impurity Dasatinib N-oxyde (RT 12.2-12.4) ([3]; 6 week, 40° C./70% RH): 0.03%
Impurity Deshydroxyethyl dasatinib (RT 11.0) ([3]; 6 week, 40° C./70% RH): 0.04%
Impurity Ethylene-diamine intermedier (RT 9.0-9.3) ([3]; 6 week, 40° C./70% RH): 0.02%
Impurity Summary (%) ([3]; 6 week, 40° C./70% RH): 0.09%
Impurity Deshydroxyethyl dasatinib (RT 11.0) ([3]; starting sample): 0.04%
Impurity Ethylene-diamine intermedier (RT 9.0-9.3) ([3]; starting sample): 0.03%
Impurity Summary (%) ([3]; starting sample): 0.07%
stability in the storage tests (in words) [3]: particularly stable
